Numbered stars: 1 amine (or outer) side, 2 acyl side, 3 side chain; on linkers, the order of the positions; unused ones are H or OH. Square brackets hold non-standard residues; d marks the D form. Peptide text beside a SMILES is read from it. * marks the point of attachment. ξ: configuration not given here. X1 = O=C([C@@H](N[*:1])c1cnc[nH]1)[*:2]; Ile(3ξ) = CCC(C)[C@H](N)C(=O)O; Lauroyl = CCCCCCCCCCCC(=O)*
Molecular target: WHN-N protein (SARS-CoV-2 nucleocapsid N protein) (Severe acute respiratory syndrome coronavirus 2, UniProt P0DTC9)
Assay type: binding

SMILES | specificity of the peptide sequence
CCCCCCCCCCCC(=O)N[C@H](C(=O)N[C@H](C(=O)N[C@@H](CO)C(=O)N[C@@H](CC(N)=O)C(=O)N[C@@H](Cc1c[nH]cn1)C(=O)N[C@@H](CO)C(=O)N[C@@H](Cc1c[nH]cn1)C(=O)N[C@@H](Cc1c[nH]cn1)C(=O)N[C@@H](Cc1c[nH]cn1)C(=O)N[C@@H](CC(=O)O)C(=O)N[C@H](C(=O)N[C@@H](CC(C)C)C(N)=O)C(C)CC)C(C)CC)c1cnc[nH]1 (stereo partly drawn) [11-KOD1, 11-Mrcpt-HISNHSHHHDIL-NH2] (Lauroyl-[X1][Ile(3ξ)]SNHSHHHD[Ile(3ξ)]L-NH2) | specific for the WHN-N protein
CCCCCCCCCCCC(=O)N[C@H](C(=O)N1CCC[C@H]1C(=O)N[C@H](C(=O)N[C@@H](Cc1ccc(O)cc1)C(=O)N[C@@H](Cc1c[nH]cn1)C(=O)N[C@@H](CCCCN)C(=O)N[C@@H](CC(C)C)C(N)=O)C(C)CC)[C@@H](C)O (some centres unmarked) [11-KOD7, 11-Mrcpt-TPIYHKL-NH2] (Lauroyl-TP[Ile(3ξ)]YHKL-NH2) | specific for SARS-CoV-2 virus

— patent US20220365085A1, “B[…], THE USE OF B[…], SENSORS […] WITH THE SAID B[…] AND THE DETECTION METHOD OF SARS-COV-2 VIRUS” (SENSDX SPÓLKA AKCYJNA, priority 2019, published 2022)
